Laboratory results published in US12077501B2, “Compounds and compositions for intracellular delivery of agents” (ModernaTX, Inc., priority 2017, dated 2024).
One block for each molecule: values may come before it.

Key:
[1] = Particle size and polydispersity index of nanoparticle compositions (Zetasizer Nano ZS); format: physicochemical
Protocol: A Zetasizer Nano ZS (Malvem Instruments Ltd, Malvem, Worcestershire, UK) can be used to determine the particle size, the polydispersity index (PDI) and the zeta potential of the nanoparticle compositions in 1×PBS in determining particle size and 15 mM PBS in determining zeta potential.

[2] = Encapsulation efficiency of RNA (QUANT-IT RIBOGREEN RNA assay); format: physicochemical
How it was run: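 Samples diluted to about 5 μg/mL RNA in TE buffer pH 7.5, treated with buffer or 2% Triton X-100 for 15 min at 37° C, then stained with RiboGreen (1:100). Fluorescence at about 480/520 nm, blank-subtracted; free RNA fraction is intact over Triton-disrupted signal.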

hEPO expression [3] = experiment: hEPO (miR126 + miR142) mRNA expression, Tables 8b-8e; format: in vivo; details: for AUC (mIU/mL*h): lipid:Chol:PEG 1 50:47.5:2.5, Table 8e
[4] = Lipid clearance: % dose remaining, Tables 7c and 8b-8e (species not given); format: in vivo
Source text: In contrast, hEPO expression in rats induced by administration of a nanoparticle composition including a compound according to one of formulae (I), (Ia1)-(Ia6), (Ib), (II), (IIa), (III), and (IIIa) was substantially […] than that measured for MC3. […] Tables 7c and 7d show additional protein expressions and clearance data from compositions with various compounds disclosed herein as compared to with MC3. Tables 7e, 7f and 7g show hEPO expression data in CD-1 mice at a dose of 0.5 mpk.

[5] = pKa of nanoparticle compositions; format: physicochemical; details: Table 1c
[6] = Lipid purity change after storage in EtOH for 96 h at 25 or 37 °C; format: physicochemical
How it was run: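 Lipid stability was assessed as purity after storage in ethanol for 96 h at 25 °C or 37 °C.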

hEPO expression [7] = experiment: hEPO expression in CD-1 mice compared with MC3; format: in vivo; details: intravenous, 0.5 mpk, Table 7e
How it was run: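 Expression and clearance data were obtained for nanoparticle compositions with various test compounds, run in parallel with an MC3 composition.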

[8] = Lipid clearance: % dose remaining in liver of CD-1 mice; format: in vivo; details: intravenous, 0.5 mg/kg, CD-1 mouse, Table 8a
How it was run: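 Mice (CD-1) received nanoparticle compositions formulated with the disclosed compounds at 0.5 mpk. Expressed hEPO was then quantified, and clearance was assessed alongside.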

[9] = Table 1f, Formulated with lipid:Chol:DOPE:PEG 1 40:38.5:20:1.5
[10] = lipid:Chol:PEG 1 50:47.5:2.5, Table 8e
[11] = Table 1e, Formulated with lipid:Chol:DOPE:PEG 1 40:38.5:20:1.5
[12] = Table 1d, Formulated with lipid:Chol:DOPE:PEG 1 40:38.5:20:1.5
[13] = Table 1c, nanoparticle compositions

- PDI [1, 9]: 0.25
- Size (nm) [1, 9]: 129.9 nm
- EE (%) [2, 9]: 97.7%
- % Dose Remaining (liver, 24 h) ([4]; Table 8d): 2.51%
SMILES: CCCCCCCCCOC(=O)CCCCCCCN(CCCCCCCC(=O)OC(CCCCCCCC)CCCCCCCC)CCCCC(=O)N(CC)CCN(CC)C(=O)CCCCN(CCCCCCCC(=O)OCCCCCCCCC)CCCCCCCC(=O)OC(CCCCCCCC)CCCCCCCC [Compound 181, Di(heptadecan-9-yl) 15,18-diethyl-9,24-bis(8-(nonyloxy)-8-oxooctyl)-14,19-dioxo-9,15,18,24-tetraazadotriacontanedioate]
- AUC (hEPO expression [3]; Table 8d): 1.69e+08 pg·h/mL

- PDI [1, 9]: 0.20
- Size (nm) [1, 9]: 126.0 nm
- EE (%) [2, 9]: 98.5%
- % Dose Remaining (liver, 24 h) ([4]; Table 8d): 42.86%
SMILES: CCCCCCCCCOC(=O)CCCCCCCN(CCCCCCCC(=O)OC(CCCCCCCC)CCCCCCCC)CCCCC(=O)OC(C)CC(C)OC(=O)CCCCN(CCCCCCCC(=O)OCCCCCCCCC)CCCCCCCC(=O)OC(CCCCCCCC)CCCCCCCC (stereo not shown) [Compound 187, Di(heptadecan-9-yl) 8,8′-(26,28-dimethyl-11,24,30,43-tetraoxo-10,25,29,44-tetraoxa-19,35-diazatripentacontane-19,35-diyl)dioctanoate]
- AUC (hEPO expression [3]; Table 8d): 5.22e+07 pg·h/mL

- % Dose Remaining (liver, 24 h) [4, 10]: 8.55%
SMILES: CCCCCCCCCOC(=O)CCCCCCCN(CCCCCCCC(=O)OCCCCCCCCC)CCOCCOCCN(CCCCCCCCC)CCCCCCCCC [Compound 173, Nonyl 18-nonyl-9-(8-(nonyloxy)-8-oxooctyl)-12,15-dioxa-9,18-diazaheptacosanoate]
- AUC (mIU/mL*h) (hEPO expression [3]): 6.70E+06 mIU/mL*h

- PDI [1, 9]: 0.21
- Size (nm) [1, 9]: 111.5 nm
- EE (%) [2, 9]: 98.2%
- % Dose Remaining (liver, 24 h) ([4]; Table 8d): 49.08%
SMILES: CCCCCCCCCOC(=O)CCCCCCCN(CCCCCCCC(=O)OC(CCCCCCCC)CCCCCCCC)CCCCC(=O)OC(C)C(C)OC(=O)CCCCN(CCCCCCCC(=O)OCCCCCCCCC)CCCCCCCC(=O)OC(CCCCCCCC)CCCCCCCC (stereo not shown) [Compound 186, Di(heptadecan-9-yl) 8,8′-(26,27-dimethyl-11,24,29,42-tetraoxo-10,25,28,43-tetraoxa-19,34-diazadopentacontane-19,34-diyl)dioctanoate]
- AUC (hEPO expression [3]; Table 8d): 2.19e+07 pg·h/mL

- % Dose Remaining (liver, 24 h) ([4]; Table 8b): 81.04%
SMILES: CCCCCCCCCCN(CCCCCCCCCC)CCCC(=O)N1CCN(C(=O)CCCN(CCCCCCCCCC)CCCCCCCCCC)CC1 [Compound 146, 1,1′-(Piperazine-1,4-diyl)bis(4-(didecylamino)butan-1-one)]
- AUC (hEPO expression [3]; Table 8b): 1.27e+07 pg·h/mL

- PDI [1, 11]: 0.15
- Size (nm) [1, 11]: 74.4 nm
- EE (%) [2, 11]: 97.7%
- % Dose Remaining (liver, 24 h) ([4]; Table 8c): 40.18%
SMILES: CCCCCCCCCCN(CCCCCCCCCC)CCCCC(=O)N1CCN(C(=O)CCCCN(CCCCCCCCCC)CCCCCCCCCC)CC1 [Compound 164, 1,1′-(Piperazine-1,4-diyl)bis(5-(didecylamino)pentan-1-one)]
- AUC (hEPO expression [3]; Table 8c): 4.09e+06 pg·h/mL

- PDI [1, 11]: 0.23
- Size (nm) [1, 11]: 73.1 nm
- EE (%) [2, 11]: 98.4%
- % Dose Remaining (liver, 24 h) ([4]; Table 8c): 63.12%
SMILES: CCCCCCCCCCNC(=O)CN(CCCCCCCCC)CCN(CCCCCCCCC)CCCCCCCCC [Compound 162, N-decyl-2-((2-(dinonylamino)ethyl)(nonyl)amino)acetamide]
- AUC (hEPO expression [3]; Table 8c): 2.3e+07 pg·h/mL

- % Dose Remaining (liver, 24 h) [4, 10]: 44.93%
SMILES: CCCCCCCCCOC(=O)CCCCCCCN(CCCCCCCC(=O)OC(CCCCCCCC)CCCCCCCC)CCCCCN(CCCCCCCCC)CCCCCCCCC [Compound 178, Heptadecan-9-yl 8-((5-(dinonylamino)pentyl)(8-(nonyloxy)-8-oxooctyl)amino)octanoate]
- AUC (mIU/mL*h) (hEPO expression [3]): 8.44E+07 mIU/mL*h

- PDI [1, 12]: 0.22
- Size (nm) [1, 12]: 84.4 nm
- EE (%) [2, 12]: 98.4%
- % Dose Remaining (liver, 24 h) ([4]; Table 8b): 78.61%
SMILES: CCCCCCCCCN(CCCCCCCCC)CCN(CCCCCCCCC)CC(=O)N(C)CCCN(C)C(=O)CN(CCCCCCCCC)CCCCCCCCC [Compound 155, 2-(dinonylamino)-N-(3-(2-((2-(dinonylamino)ethyl)(nonyl)amino)-N-methylacetamido)propyl)-N-methylacetamide]
- AUC (hEPO expression [3]; Table 8b): 8.89e+07 pg·h/mL

- PDI [1, 11]: 0.17
- Size (nm) [1, 11]: 61.8 nm
- EE (%) [2, 11]: 97.8%
- % Dose Remaining (liver, 24 h) ([4]; Table 8c): 113.64%
SMILES: CCCCCCCCCN(CCCCCCCCC)CCCOCCCN(CCCCCCCCC)CCN(CCCCCCCCC)CCCCCCCCC [Compound 161, N^1-(3-(3-(dinonylamino)propoxy)propyl)-N^1,N^2,N^2-trinonylethane-1,2-diamine]
- AUC (hEPO expression [3]; Table 8c): 128000 pg·h/mL

- PDI [1, 9]: 0.12
- Size (nm) [1, 9]: 78.0 nm
- EE (%) [2, 9]: 97.5%
- % Dose Remaining (liver, 24 h) ([4]; Table 8d): 117.31%
SMILES: CCCCCCCCCN(CCCCCCCCC)CCN(CCCCCCCCC)CC(=O)OC(C)C(C)OC(=O)CN(CCCCCCCCC)CCCCCCCCC (stereo not shown) [Compound 188, 3-((N-(2-(dinonylamino)ethyl)-N-nonylglycyl)oxy)butan-2-yl dinonylglycinate]
- AUC (hEPO expression [3]; Table 8d): 8.76e+06 pg·h/mL

- % Dose Remaining (liver, 24 h) [4, 10]: 50.47%
SMILES: CCCCCCCCCOC(=O)CCCCCCCN(CCCCCCCC(=O)OC(CCCCCCCC)CCCCCCCC)CCOCCN(CCCCCCCCC)CCCCCCCCC [Compound 180, Heptadecan-9-yl 8-((2-(2-(dinonylamino)ethoxy)ethyl)(8-(nonyloxy)-8-oxooctyl)amino)octanoate]
- AUC (mIU/mL*h) (hEPO expression [3]): 6.53E+07 mIU/mL*h

- % Dose Remaining (liver, 24 h) [4, 10]: 35.91%
SMILES: CCCCCCCCCOC(=O)CCCCCCCN(CCCCCCCC(=O)OCCCCCCCCC)CCCCCN(CCCCCCCCC)CCCCCCCCC [Compound 177, Dinonyl 8,8′-((5-(dinonylamino)pentyl)azanediyl)dioctanoate]
- AUC (mIU/mL*h) (hEPO expression [3]): 6.84E+07 mIU/mL*h

- % Dose Remaining (liver, 24 h) [4, 10]: 30.05%
SMILES: CCCCCCCCCOC(=O)CCCCCCCN(CCCCCCCC(=O)OC(CCCCCCCC)CCCCCCCC)CCOCCOCCN(CCCCCCCCC)CCCCCCCCC [Compound 174, Heptadecan-9-yl 18-nonyl-9-(8-(nonyloxy)-8-oxooctyl)-12,15-dioxa-9,18-diazaheptacosanoate]
- AUC (mIU/mL*h) (hEPO expression [3]): 5.03E+07 mIU/mL*h

- % Dose Remaining (liver, 24 h) [4, 10]: 26.22%
SMILES: CCCCCCCCCOC(=O)CCCCCCCN(CCCCCCCC(=O)OCCCCCCCCC)CCOCCN(CCCCCCCCC)CCCCCCCCC [Compound 179, Dinonyl 8,8′-((2-(2-(dinonylamino)ethoxy)ethyl)azanediyl)dioctanoate]
- AUC (mIU/mL*h) (hEPO expression [3]): 7.79E+06 mIU/mL*h

- PDI [1, 13]: 0.20
- Size (nm) [1, 13]: 74.6 nm
- EE (%) [2, 13]: 98.4%
- pKa [5]: 6.65
- Lipid % change purity in EtOH, 25° C., 96 h [6]: 5.9%
- Lipid % change purity in EtOH, 37° C., 96 h [6]: 8.3%
- % Dose Remaining 24 hr [8]: 18.52%
SMILES: CCCCCCCCCCCCCCN(CCCCCC(=O)OCCCCCCC)CCC1CCN(C(=O)CN(CCCCCCCCC)CCN(CCCCCCCCC)CCCCCCCCC)CC1 [Compound 94, Heptyl 6-((2-(1-(N-(2-(dinonylamino)ethyl)-N-nonylglycyl)piperidin-4-yl)ethyl)(tetradecyl)amino)hexanoate]
- AUC (p/s*h) CD-1 mice 0.5 mpk (hEPO expression [7]): 2.39E+07 p/s*h

- PDI [1, 13]: 0.18
- Size (nm) [1, 13]: 77.4 nm
- EE (%) [2, 13]: 98.8%
- pKa [5]: 7.46
- Lipid % change purity in EtOH, 25° C., 96 h [6]: −0.7%
- Lipid % change purity in EtOH, 37° C., 96 h [6]: 2.1%
- % Dose Remaining 24 hr [8]: 75.96%
SMILES: CCCCCCCCCN(CCCCCCCCC)CCN(CCCCCCCCC)CC(=O)N(C)CCN(C)C(=O)CN(CCCCCCCCC)CCCCCCCCC [Compound 151, 2-(Dinonylamino)-N-(2-(2-((2-(dinonylamino)ethyl)(nonyl)amino)-N-methylacetamido)ethyl)-N-methylacetamide]
- AUC (p/s*h) CD-1 mice 0.5 mpk (hEPO expression [7]): 1.54E+08 p/s*h
